Test results reported in patent US5534416A, “Fluorescent viability assay using cyclic-substituted unsymmetrical cyanine dyes” (Molecular Probes, Inc., priority 1993, dated 1996).
Like-named read-outs stand apart in the source and are kept apart here.

Columns and labels:
DNA = test: Quantum yield of dye on DNA versus fluorescein; format: physicochemical; conditions: for Normalized QY: QY divided by QY of thiazole orange; for QY (DNA): Table 2, Tris buffered saline pH 10, fluorescein assumed 0.92; for QY: Table 7, on DNA, fluorescein reference
Excerpt: ^ Quantum yield (QY) of dye on DNA (standard solution in Tris buffere
saline adjusted to pH 10) in comparison with fluorescein, which is assume
to have a quantum yield of 0.92 under the test conditions.
(§1) Factors such as degree of fluorescence enhancement with nucleic acid binding, self quenching, molar extinction coefficient, membrane permeability, intracellular partitioning, nucleic acid binding affinity, and quantum yield contribute to the overall fluorescence of nucleic acid stains in cells. Enhanced cell fluorescence obtained with Dye I is related to unexpected properties other than quantum yield alone. Quantum yield is determined as described above (foot note to Table 2). Normalized quantum yield is determined to illustrate the fold-change in quantum yield of Dye I compared with thiazole orange, a related cell-permeant dye. The normalized fluorescence values represent the quantum yield of each dye divided by the quantum yield of thiazole orange. Fluorescence per cell is also scaled to thiazole orange values for both E. coli and S. aureus to allow direct comparison between relative (normalized) quantum yield and relative (normalized) fluorescence/cell.

K. pneumonia = test: Fluorescence per cell, stained bacteria (microtiter plate reader); format: cell-based, Klebsiella pneumonia; conditions: optimal dye concentration, corrected for cell number
Experimental: (§2) 1. Measured in a fluorescence microtiter plate reader with extraction and
(§3) emission filters at 485+/-10 and 530+/-12, respectively. Fluorescence dat
(§4) are corrected for cell number; but are not corrected for cell volume or
(§5) 2. Optimal dye concentrations determined as in Example 3.
(§6) 3. Suspension concentrations as used for Example 3.
(§7) A culture of E. coli is washed by centrifugation and resuspended in water to its original volume. Using Corning 96-well microtiter plates with flat bottoms, 150 μL volumes of suspension are loaded per well. A single well of sterile water is the well background standard. Using a Dynatech MR600 microplate reader equipped with a 410 nm filter, absorbance is determined for the initial volumes of suspension. The suspension is diluted seven times by serial ten-fold dilutions in water, 150 μL of suspension per well, and the absorbance measured for each dilution. Following the absorbance measurements, each dilution loaded into wells is further diluted 1:10 and plated in duplicate on nutrient growth agar. The colonies are counted and expressed as colony forming units per milliliter (cfu/mL). Using the turbidity of the dilution in the microtiter plate, the suspension is diluted to a density of about 1×10^9 cfu/mL.
(§8) The bacteria suspension, adjusted to a known density as described above, is diluted seven times by serial ten-fold dilutions in water; 150 μL of suspension per well. Three-fold serial dilutions of dye are used (30-0.04 μM); 50 μL of dye at 4× final concentration. Using Corning 96-well microtiter flat-bottom plates, a matrix is set up whereby the cell concentration decreases across the plate and the dye concentration decreases down the plate, final volume per well is 200 μL. The top row and first column are reserved for the control, sterile water. The plate is incubated at 37° C. for 30 minutes, then read in a Millipore Cytofluor™ 2350 96-well fluorescence microplate reader at a fixed excitation of 485+/-10 nm and each of three emission wavelengths, 530+/-12, 620+/-20, or 645+/-20 nm. The results determine the best dye range (30-1 μM) and the best cell concentrations (concentrated through first three ten-fold dilutions) for optimal dye loading. […] Using the four dye dilutions and the four bacterial dilutions, many bacteria and dyes can be assayed quickly. The data collected allow the determination of optimal dye and cell concentration required for maximal fluorescence intensity per cell.

S. sonnei = test: as above; format: cell-based, Shigella sonnei; conditions: optimal dye concentration, corrected for cell number
Experimental: as §2, §3, §4, §5, §6, §7, §8

P. aeruginosa = test: as above; format: cell-based, Pseudomonas aeruginosa; conditions: optimal dye concentration, corrected for cell number
Experimental: as §2, §3, §4, §5, §6, §7, §8

S. aureus = test: as above; format: cell-based, Staphylococcus aureus; conditions: for Fluorescence/Cell (ex 485/em 530): S. aureus, optimal dye concentration, corrected for cell number; for Normalized Fluorescence/cell (ex 485 nm/em 530 nm), Staphylococcus aureus: scaled to thiazole orange
Excerpt: as §2, §3, §4, §5, §6, §1, §7, §8

E. coli = test: as above; format: cell-based, Escherichia coli; conditions: for Fluorescence/Cell (ex 485/em 530): E. coli, optimal dye concentration, corrected for cell number; for Normalized Fluorescence/cell (ex 485 nm/em 530 nm), Escherichia coli: scaled to thiazole orange
Excerpt: as §2, §3, §4, §5, §6, §1, §7, §8

nucleic acids = test: Excitation/emission maxima of dyes complexed with nucleic acids; format: physicochemical; design: key: wavelength in nm; conditions: Table 2; dye complexed with nucleic acids
Excerpt: Dye I is lightly colored and is virtually non-fluorescent when diluted in aqueous solution according to the method of the invention. Dye I is highly membrane-permeant and labels all cells, whether live or dead. When Dye I binds with intracellular nucleic acid polymers such as DNA and RNA, the resultant dye-nucleic acid complex becomes extremely fluorescent upon illumination. The quantum yield of the preferred Dye I/DNA complex is greater than 0.02, typically greater than 0.1, preferably greater than 0.2, and more preferably greater than 0.3. Typically, Dye I combines with intracellular nucleic acids to give a green or red fluorescence. When excited at a wavelength between about 300 nm and about 500 nm, the dyes complexed with nucleic acids have an emission maximum between about 500 and about 610 nm (see Table 2). Preferably, Dye I complexed with nucleic acids has an emission maximum of between about 500 nm and about 535 nm, resulting in a true green fluorescent signal in cells of the sample where Dye I is present alone.

M. luteus = test: Fluorescence per cell, stained bacteria (microtiter plate reader); format: cell-based, Micrococcus luteus; conditions: optimal dye concentration, corrected for cell number
Experimental: as §2, §3, §4, §5, §6, §7, §8

S. pyogenes = test: as above; format: cell-based, Streptococcus pyogenes; conditions: optimal dye concentration, corrected for cell number
Experimental: as §2, §3, §4, §5, §6, §7, §8

B. cereus = test: as above; format: cell-based, Bacillus cereus; conditions: optimal dye concentration, corrected for cell number
Experimental: as §2, §3, §4, §5, §6, §7, §8

S. oranienburg = test: as above; format: cell-based, Salmonella oranienburg; conditions: optimal dye concentration, corrected for cell number
Experimental: as §2, §3, §4, §5, §6, §7, §8

intact cells = conditions: cited from earlier work; for Loading / Retention / pH sensitivity: in words

Compound	Normalized QY (DNA)	QY (DNA) (DNA)	QY (DNA)	Fluorescence/Cell (ex 485/em 530) (K. pneumonia)	Fluorescence/Cell (ex 485/em 530) (S. sonnei)	Fluorescence/Cell (ex 485/em 530) (P. aeruginosa)	Fluorescence/Cell (ex 485/em 530) (S. aureus)	Normalized Fluorescence/cell (ex 485 nm/em 530 nm), Staphylococcus aureus (S. aureus)	Fluorescence/Cell (ex 485/em 530) (E. coli)	Normalized Fluorescence/cell (ex 485 nm/em 530 nm), Escherichia coli (E. coli)	EM max (nucleic acids)	EX max (nucleic acids)	Fluorescence/Cell (ex 485/em 530) (M. luteus)	Fluorescence/Cell (ex 485/em 530) (S. pyogenes)	Fluorescence/Cell (ex 485/em 530) (B. cereus)	Fluorescence/Cell (ex 485/em 530) (S. oranienburg)	also measured
CC1=CC(=Cc2sc3ccccc3[n+]2C)c2ccccc2N1c1ccccc1 [compound 613]	1.8	0.33	0.33	10	6	6	10	3.1	12	6	523	506	75	0.02	242	10	
CCN(CC)C1=CC(=Cc2sc3ccccc3[n+]2C)c2ccccc2N1c1ccccc1 [compound 619]	3.4	0.62	0.62	12	13	16	47	14.7	26	13	517	488	149	0.06	827	18	
CCCCC1=CC(=Cc2oc3ccccc3[n+]2C)c2ccccc2N1c1ccccc1 [compound 624]	3.2	0.58	0.58	17	11	14	44	13.8	24	12	501	480	162	0.05	709	15	
COC1=CC(=Cc2sc3ccccc3[n+]2C)c2ccccc2N1c1ccccc1 [compound 628]	2.2	0.40	0.40	20	16	14	34	10.6	28	14	506	488	149	0.04	613	19	
CCCCCCN1C=CC(=Cc2sc3ccccc3[n+]2C)c2ccccc21 [compound 634]	1.0	0.18	0.18	4	4	3	15	4.7	4	2	530	510	58	0.03	154	5	
Carboxycalcein Blue AM																	T1/2 (time for half of dye to leak from intact cells) (intact cells; "probably", temperature not stated): < 60 min; Loading (intact cells): Easily loaded
Carboxyfluorescein diacetate																	T1/2 (time for half of dye to leak from intact cells) (intact cells; 37° C.): < 30 min; Retention (intact cells): Moderate; pH sensitivity (intact cells): sensitive
Carboxynaphtho-fluorescein diacetate																	pH sensitivity (intact cells): sensitive
Sulfofluorescein diacetate																	Loading (intact cells): More difficult; Retention (intact cells): better
